Reference: ChEMBL document CHEMBL1158113, “Terpenoids and a diarylheptanoid from Zingiber ottensii” (J Nat Prod, 2006)

Test system: Radical scavenging activity
Test: Antioxidant activity assessed as DPPH free radical scavenging activity after 30 mins by multilabel counter
Type: functional

COc1cc(CC[C@@H](O)C[C@@H](O)CCc2ccc(O)c(OC)c2)ccc1O
IC50: 20.6 µM

COc1cc(CC[C@H](O)C[C@@H](O)CCc2ccc(O)c(OC)c2)ccc1O
IC50: 20.1 µM

COc1cc(CC[C@H](O)C[C@@H](O)CCc2cc(OC)c(O)c(OC)c2)ccc1O
IC50: 16.4 µM

COc1cc(CC[C@@H](O)C[C@@H](O)CCc2ccc(O)c(O)c2)ccc1O (relative stereo)
IC50: 24 µM

Cc1c(C)c2c(c(C)c1O)CC[C@@](C)(CCC[C@H](C)CCC[C@H](C)CCCC(C)C)O2 [ALPHA-TOCOPHEROL]
IC50: 37.5 µM

O=C1O[C@H]([C@@H](O)CO)C(O)=C1O [ASCORBIC ACID]
IC50: 35.6 µM
